Measurements taken from patent publication US10538497B2, “Compounds as indoleamine 2,3-dioxygenase inhibitors” (Merck Sharp & Dohme Corp., priority 2015, dated 2020).

Tests used:
[1] = target: T1, IDO1 (Homo sapiens (Human), UniProt P14902); assay: IDO1 Cellular Assay in Frozen HEK293 Cells Transiently Transfected with Human IDO1; assay type: cell-based; conditions: HEK293 cells transiently transfected with human IDO1; read-out: IDO1 HEK293 Cell Assay, IC50
[2] = target: T1, IDO1; assay: IDO1 Cellular Assay in Hela Cells Stimulated with IFNγ; assay type: cell-based; conditions: Hela cells stimulated with IFNγ 100 ng/mL; read-out: IDO1 HELA Cell Assay, IC50
[3] = target: T1, IDO1; assay: IDO1 Enzyme Assay; conditions: HIS-tagged recombinant IDO1, 40 nM
[4] = read-out: IDO1 Enzyme Assay, IC50

T1 sequence (P14902 whole entry): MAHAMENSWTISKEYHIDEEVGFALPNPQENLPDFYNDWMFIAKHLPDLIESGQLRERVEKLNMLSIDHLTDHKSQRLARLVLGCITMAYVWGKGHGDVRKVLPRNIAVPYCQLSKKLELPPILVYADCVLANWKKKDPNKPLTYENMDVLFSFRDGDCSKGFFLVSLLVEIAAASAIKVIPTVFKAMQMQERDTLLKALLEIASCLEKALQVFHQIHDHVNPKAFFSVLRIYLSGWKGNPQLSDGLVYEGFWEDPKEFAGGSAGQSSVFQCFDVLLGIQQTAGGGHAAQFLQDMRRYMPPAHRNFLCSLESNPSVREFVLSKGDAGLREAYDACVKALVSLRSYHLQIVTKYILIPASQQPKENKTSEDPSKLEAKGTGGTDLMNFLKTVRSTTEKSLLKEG

Row | IC50 [1] [nM] | IC50 [2] [nM] | IC50 [3, 4] [nM] | IC50 ([3]; IDO1 Enzyme Assay, IC50, nM) [nM] | Compound
1 | 87.7 | 173 | 87.9 | – | N#Cc1cc(N/C(=N\O)c2nonc2SCCNC(=O)[C@@H]2CC2(F)F)ccc1F [Example 188, (1S)-N-[2-({4-[N-(3-cyano-4-fluorophenyl)-N′-hydroxycarbamimidoyl]-1,2,5-oxadiazol-3-yl}sulfanyl)ethyl]-2,2-difluorocyclopropanecarboxamide]
2 | 745 | 380 | 132 | – | CC(C)OC(=O)[C@H](C)NP(=O)(CCSc1nonc1/C(=N/O)Nc1ccc(F)c(Br)c1)N[C@@H](C)C(=O)OC(C)C [Example 97, 1-methylethyl (2S,6S)-4-[2-({4-[N-(3-bromo-4-fluorophenyl)-N′-hydroxycarbamimidoyl]-1,2,5-oxadiazol-3-yl}sulfanyl)ethyl]-2,6,9-trimethyl-7-oxo-8-oxa-3,5-diaza-4-phosphadecan-1-oate 4-oxide]
3 | 65.1 | 34.8 | 53.9 | – | C[C@@H](O)[C@@H](CO)NC(=O)CSc1nonc1/C(=N/O)Nc1ccc(F)c(Br)c1 [Example 143, 2-({4-[N-(3-bromo-4-fluorophenyl)-N′-hydroxycarbamimidoyl]-1,2,5-oxadiazol-3-yl}sulfanyl)-N-[(1R,2R)-2-hydroxy-1-(hydroxymethyl)propyl]acetamide]
4 | 91.5 | 246 | 62.2 | – | CN1CCN(CCSc2nonc2C(=NO)Nc2ccc(F)c(Br)c2)CC1 [Example 164, N-(3-bromo-4-fluorophenyl)-N′-hydroxy-4-{[2-(4-methvlpiperazin-1-yl)ethyl]sulfanyl}-1,2,5-oxadiazole-3-carboximidamide]
5 | 404 | 249 | 39 | – | O=c1c(NCCSc2nonc2/C(=N/O)Nc2ccc(F)c(Br)c2)c(N2CCCCC2)c1=O [Example 93, N-(3-bromo-4-fluorophenyl)-4-({2-[(3,4-dioxo-2-piperidin-1-ylcyclobut-1-en-1-yl)amino]ethyl}sulfanyl)-N′-hydroxy-1,2,5-oxadiazole-3-carboximidamide]
6 | 367 | 357 | 57.4 | – | O=c1c(NCCSc2nonc2/C(=N/O)Nc2ccc(F)c(Br)c2)c(N2CCOCC2)c1=O [Example 91, N-(3-bromo-4-fluorophenyl)-N′-hydroxy-4-({2-[(2-morpholin-4-yl-3,4-dioxocyclobut-1-en-1-yl)amino]ethyl}sulfanyl)-1,2,5-oxadiazole-3-carboximidamide]
7 | 412 | 322 | 180 | – | N#Cc1cc(N/C(=N\O)c2nonc2SCC(=O)NC2COC2)ccc1F [Example 186, 2-({4-[N-(3-cyano-4-fluorophenyl)-N′-hydroxycarbamimidoyl]-1,2,5-oxadiazol-3-yl}sulfanyl)-N-oxetan-3-ylacetamide]
8 | 46.9 | 57.2 | 54 | – | CC(=O)NCCSc1nonc1/C(=N/O)Nc1ccc(F)c(C(F)F)c1 [Example 142, N-{2-[(4-{N-[3-(difluoromethyl)-4-fluorophenyl]-N′-hydroxycarbamimidoyl}-1,2,5-oxadiazol-3-yl)sulfanyl]ethyl}acetamide]
9 | 46.9 | 114 | – | 58.8 | ON=C(Nc1ccc(F)c(Br)c1)c1nonc1SCc1ncon1 [Example 156, N-(3-bromo-4-fluorophenyl)-N′-hydroxy-4-[(1,2,4-oxadiazol-3-ylmethyl)sulfanyl]-1,2,5-oxadiazole-3-carboximidamide]
10 | 166 | 331 | – | 97.6 | ON=C(Nc1ccc(F)c(Br)c1)c1nonc1SCCc1cscn1 [Example 152, N-(3-bromo-4-fluorophenyl)-N′-hydroxy-4-{[2-(1,3-thiazol-4-yl)ethyl]sulfanyl}-1,2,5-oxadiazole-3-carboximidamide]
11 | 110 | 97.3 | 142 | – | OC[C@H](O)CSc1nonc1/C(=N/O)Nc1ccc(F)c(C(F)F)c1 [Example 167, N-[3-(difluoromethyl)-4-fluorophenyl]-4-{[(2S)-2,3-dihydroxypropyl]sulfanyl}-N′-hydroxy-1,2,5-oxadiazole-3-carboximidamide]
12 | 32.9 | 24.7 | 36.9 | – | NC(=O)CCSc1nonc1/C(=N/O)Nc1ccc(F)c(Br)c1 [Example 96, 3-({4-[N-(3-bromo-4-fluorophenyl)-N′-hydroxycarbamimidoyl]-1,2,5-oxadiazol-3-yl}sulfanyl)propanamide]

Further lines, the molecule ahead of its results:

Row | Compound | IC50 [1] [nM] | IC50 [2] [nM] | IC50 [3, 4] [nM] | IC50 ([3]; IDO1 Enzyme Assay, IC50, nM) [nM]
13 | CC(=O)NCCSc1nonc1/C(=N/O)Nc1ccc(F)c(Br)c1 [Example 11, (Z)—N-(2-((4-(N-(3-Bromo-4-fluorophenyl)-N′-hydroxycarbamimidoyl)-1,2,5-oxadiazol-3-yl)thio)ethyl)acetamide] | 22.2 | 9.3 | 27.7 | –
14 | CCNc1c(NCCSc2nonc2/C(=N/O)Nc2ccc(F)c(Br)c2)c(=O)c1=O [Example 55, N-(3-bromo-4-fluorophenyl)-4-[(2-{[2-(ethylamino)-3,4-dioxocyclobut-1-en-1-yl]amino}ethyl)sulfanyl]-N′-hydroxy-1,2,5-oxadiazole-3-carboximidamide] | 261 | 67.8 | 20.2 | –
15 | N#CCSc1nonc1/C(=N/O)Nc1ccc(F)c(Br)c1 [Example 67, N-(3-bromo-4-fluorophenyl)-4-[(cyanomethyl)sulfanyl]-N′-hydroxy-1,2,5-oxadiazole-3-carboximidamide] | 17.7 | 14.5 | 39.3 | –
16 | CCSc1nonc1/C(=N/O)Nc1ccc(F)c(Br)c1 [Example 24, (Z)-N-(3-bromo-4-fluorophenyl)-4-(ethylthio)-N′-hydroxy-1,2,5-oxadiazole-3-carboximidamide] | 133 | 62.8 | 154 | –
17 | NS(=O)(=O)NCCSc1nonc1/C(=N/O)Nc1ccc(F)c(Br)c1 [Example 3, (Z)—N-(3-Bromo-4-fluorophenyl)-N′-hydroxy-4-((2-(sulfamoylamino)ethyl)thio)-1,2,5-oxadiazole-3-carboximidamide] | 56.9 | 72.4 | 79.5 | –
18 | CN/C(=C\[N+](=O)[O-])NCCSc1nonc1C(=NO)Nc1ccc(F)c(Br)c1 [Example 60, N-(3-bromo-4-fluorophenyl)-N′-hydroxy-4-[(2-{[(E)-1-(methylamino)-2-nitroethenyl]amino}ethyl)sulfanyl]-1,2,5-oxadiazole-3-carboximidamide] | 176 | 153 | 36.5 | –
19 | CCc1cccc(N/C(=N\O)c2nonc2SCCNC(C)=O)c1 [Example 65, N-[2-({4-[N-(3-ethylphenyl)-N′-hydroxycarbamimidoyl]-1,2,5-oxadiazol-3-yl}sulfanyl)ethyl]acetamide] | 74.5 | 52.6 | 59.4 | –
20 | CC(C)OC(=O)OCOP(=O)(CCSc1nonc1/C(=N/O)Nc1ccc(F)c(Br)c1)OCOC(=O)OC(C)C [Example 10, (Z)-(((2-((4-(N-(3-bromo-4-fluorophenyl)-N′-hydroxycarbamimidoyl)-1,2,5-oxadiazol-3-yl)thio)ethyl)phosphoryl)bis(oxy))bis(methylene) diisopropyl bis(carbonate)] | > 10000 | 4160 | 136 | –
